Data published in publication PMC5192239 (Data in Brief, 2016).

What was measured:
[1] = target: T1, human phosphoglucomutase 1 (hPGM1) (Homo sapiens, UniProt P36871); experiment: ESI-MS of intact purified protein:[…] phosphorylation of active site serine after incubation; assay type: biochemical
T1 construct: gene PGM1
T1 sequence (P36871 1-562): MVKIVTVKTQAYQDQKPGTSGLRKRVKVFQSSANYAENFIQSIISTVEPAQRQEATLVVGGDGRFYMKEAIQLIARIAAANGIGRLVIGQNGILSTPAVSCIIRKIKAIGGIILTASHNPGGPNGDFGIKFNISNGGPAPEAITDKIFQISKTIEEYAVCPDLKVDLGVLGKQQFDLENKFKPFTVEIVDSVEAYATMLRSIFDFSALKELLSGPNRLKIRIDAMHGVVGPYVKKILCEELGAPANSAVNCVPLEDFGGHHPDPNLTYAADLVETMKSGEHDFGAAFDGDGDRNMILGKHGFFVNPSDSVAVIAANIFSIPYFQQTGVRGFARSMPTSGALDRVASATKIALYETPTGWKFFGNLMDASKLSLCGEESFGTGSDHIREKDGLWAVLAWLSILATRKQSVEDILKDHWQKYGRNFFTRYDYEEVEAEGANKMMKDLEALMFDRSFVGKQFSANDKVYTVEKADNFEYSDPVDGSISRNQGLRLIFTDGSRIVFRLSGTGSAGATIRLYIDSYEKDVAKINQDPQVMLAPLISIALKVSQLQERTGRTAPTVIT

[2] = target: T2, Pseudomonas aeruginosa PMM/PGM (PaPMM) (Pseudomonas aeruginosa, UniProt P26276); experiment: product formation in coupled G6PDH assay; ESI-MS dephosphorylation of catalytic serine ([…]); assay type: biochemical
T2 construct: gene algC

[3] = target: T2, Pseudomonas aeruginosa PMM/PGM (PaPMM); experiment: coupled G6PDH enzyme assay, noncompetitive inhibition fit; also ESI-MS dephosphorylation of active site serine; assay type: biochemical
[4] = target: T2, Pseudomonas aeruginosa PMM/PGM (PaPMM); experiment: coupled G6PDH enzyme assay, competitive inhibition fit (text prints Ki in μM; Fig. […] legend prints mM); assay type: biochemical
[5] = system: O=P(O)(O)O[C@H]1O[C@H](CO)[C@@H](O)[C@H](O)[C@H]1O; experiment: purified protein

T2 sequence (P26276 2-463): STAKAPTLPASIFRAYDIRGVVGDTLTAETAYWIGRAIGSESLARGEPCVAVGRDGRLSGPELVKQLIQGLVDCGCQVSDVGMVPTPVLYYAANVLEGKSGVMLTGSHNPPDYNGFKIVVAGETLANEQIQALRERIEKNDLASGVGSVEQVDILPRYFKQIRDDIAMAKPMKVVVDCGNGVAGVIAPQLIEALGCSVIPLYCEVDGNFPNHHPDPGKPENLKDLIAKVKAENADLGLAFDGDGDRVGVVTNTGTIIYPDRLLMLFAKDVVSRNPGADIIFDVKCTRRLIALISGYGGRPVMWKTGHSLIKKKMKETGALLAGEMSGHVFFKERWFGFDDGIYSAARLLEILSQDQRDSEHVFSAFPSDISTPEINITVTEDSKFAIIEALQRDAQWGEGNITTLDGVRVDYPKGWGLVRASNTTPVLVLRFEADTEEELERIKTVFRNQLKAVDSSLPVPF

## O=C(COP(=O)(O)O)[C@@H](O)[C@H](O)[C@H](O)COP(=O)(O)O [F16P, fructose 1,6-bisphosphate]
[1]
  ESI-MS of intact purified protein: 92% phosphorylation of active site serine aft: Treatment of hPGM1 with F16P was done herein

## O=C[C@H](O)[C@@H](O)[C@H](O)[C@H](O)COP(=O)(O)O [G6P, glucose 6-phosphate]
[2]
  product formation in coupled G6PDH assay; ESI-MS dephosphorylation of catalytic: Enzymatic activity of PaPMM was quantified by measuring the formation of glucose 6-phosphate (G6P)

## N[C@H]1C(OP(=O)(O)O)O[C@H](CO)[C@@H](O)[C@@H]1O (some centres unmarked) [GlcN1P, glucosamine 1-phosphate]
[3]
  Ki: 307 ± 29 µM

## O=P(O)(O)O[C@H]1OC[C@@H](O)[C@H](O)[C@H]1O [X1P, xylose 1-phosphate]
[4]
  Ki: 8.6 ± 0.3 µM

## Pseudomonas aeruginosa PMM/PGM (PaPMM) (Pseudomonas aeruginosa PAO1)
[5]
  Km: 28 ± 2.8 µM
